Laboratory results taken from patent publication US20240316012A1, “METHODS FOR TREATING LYMPHOMA” (Northwestern University, priority 2023, published 2024).

How the values were obtained:
Format in all cases: cell-based, mouse
H3K27 acetylation = experiment: Flow cytometry for H3K27ac after in vitro culture with inhibitors
Description: Data are normalized to viable cell number and z-scores per metabolite. […] P=two-sided Student's t-test. The data are presented as the mean±SEM and individual data points for each animal. Cross indicates death of the animal. […] P=two-sided Student's t-test. Shown are the mean±SD and individual data points. […] Data are presented as mean±SD and individual data points. […] P=paired two-sided Student's t-test. Data are presented as the mean±SD. […] Data was normalized as in (a). P=two-sided Student's t-test. The data are presented as the mean±SEM. […] Experiment as in (h) (n=3 mice genotype). Data was normalized as in (a). P=two-sided Student's t-test. Data are presented as the mean±SD. FIGS. 3-D, Representative data from two independent experiments with n=3 biological replicates per group. FIG. 3E, Representative data from two independent experiments with two biological replicates per group. FIG. 3F, Representative data from two independent experiments. FIG. 3G, Representative data from two independent experiments with three biological replicates per group. FIG. 3H, Representative data from one experiment with four biological replicates per group. FIG. 3I, Representative data from one experiment with three biological replicates per group FIGS. 4A-4H show ACLY is a critical effector molecule downstream of PD-1. […] ITK-SYK^+ cells were FACS-sorted from ITK-[…]2 mice on d5 after TAM and 12 h anti-PD-L1 or isotype control antibody treatment (i.p., 200 μg). P=paired two-sided Student's t-test. Data are presented as the mean±SD. […] Spleen-derived single-cell suspensions were FACS-sorted from ITK-[…]2 mice on d5 after TAM and cultured in vitro overnight with anti-PD-L1 or isotype control antibodies and the PI3K inhibitors (“iPI3K”) Wortmannin (20 nM), LY294002 (20 μM), or DMSO. […] Spleen-derived lymphocytes, FACS-sorted from ITK-[…]2 and ITK-[…]2; Pdcd1^-/- mice on d5 after TAM were incubated for three days in vitro. P=two-sided Student's t-test. Data are presented as the mean±SD. […] Protein lysates were generated after 48 h in vitro culture. RNP, ribonucleoprotein. […] P=two-sided Logrank-test. […] ITK-SYK^+ cells were FACS-sorted from ITK-[…]2 (“Pdcd1^+/+”) and ITK-[…]2; Pdcd1^-/- (“Pdcd1^-/-”) mice on d5 after TAM, fixed, and processed for anti-H3K27ac ChIP-seq analysis. ChIP-seq, chromatin immunoprecipitation sequencing; TSS, transcription start site. FIG. 4B, Representative data from three independent experiments with three biological replicates per group. FIG. 4C, Representative data from two independent experiments with two biological replicates. FIGS. 4D and 4E, Representative data from 3 independent experiments. FIGS. 4F and 4G, Data from one experiment with n=5 mice per group. […] (8752, CST), and assessed by flow cytometry. […]

[1] = system: ITK-SYK^+PD-1^− lymphoma cells; experiment: In vitro survival of PD-1 deficient lymphoma cells under inhibitor treatment; conditions: FIGS. 10D-F
Procedure: (§1) Cell culture. Unless otherwise indicated, murine cells were cultured in DMEM containing 20% FCS. The following compounds were used for the in vitro experiments: glycolysis inhibitor 2-deoxy-D-glucose (D8375, Sigma), mTOR inhibitor Torin-1 (S2827, Selleckchem), HIF1α inhibitor PX-478 2HCl (S7612, Selleckchem), ATP citrate lyase inhibitor BMS-303141 (4609, Tocris), fatty acid synthase inhibitor FT113 (S6666, Selleckchem), and BET-p300/CBP dual inhibitor NE02734 (S9648, Selleckchem). Inhibitors were dissolved in DMSO or water, and the cell culture medium was supplemented with the indicated concentrations of the compound or DMSO/water (as control).
To determine whether ACLY activity is required for PD-1-deficient lymphoma cell survival, Applicants next incubated transformed ITK-SYK^+PD-1− T cells from tamoxifen-injected ITK-SYK^CD4-creERT2; Pdcd1^−/− mice with an ACLY inhibitor. This treatment killed the ITK-SYK^+PD-1^− lymphoma cells (FIG. 11F, p=0.0037).

ITK-SYK^+PD-1− cells = experiment: Lactate production of ITK-SYK+PD-1− cells incubated with small molecule inhibitors; conditions: ITK-SYK+PD-1− cells in vitro; FIGS. 10A-C
Procedure: as §1
To test the dependency of fully transformed lymphomas with Pdcd1 deletion on the released mTOR-HIF1α-glycolysis cascade, Applicants incubated ITK-SYK^+PD-1− cells with small molecule inhibitors of mTOR, HIF1α, or glycolysis^22,23.

SMILES | H3K27 acetylation in Pdcd1 deficient lymphoma cells (H3K27 acetylation; 2-DG 1 mM, 4 h in vitro vs DMSO, p=0.0003) | toxicity to PD-1 deficient lymphoma cells [1] | production of lactate (ITK-SYK^+PD-1− cells) | histone acetylation (H3K27ac) in ITK-SYK+ cells (H3K27 acetylation; BMS-303141 15 μM vs DMSO vehicle control, 3 hours, 4 h) | dependency of H3K27ac on ACLY function in cells with pharmacologically inactivated PD-1 pathway (H3K27 acetylation; anti-PD-L1 vs isotype control pretreated mice, BMS-303141 15 μM, p=0.0131)
O=CC[C@@H](O)[C@H](O)[C@H](O)CO [2-DG, 2-deoxy-D-glucose] | reduction in H3K27 acetylation | toxic | reduced the production of lactate | – | –
COc1ccc(-c2ccccc2)cc1NS(=O)(=O)c1cc(Cl)cc(Cl)c1O [BMS-303141] | – | – | – | reduced histone acetylation | significantly higher
